These results are taken from paper PMC3569060 (Molecular cancer therapeutics, 2012).

Each structure is given as a SMILES string.

The target in assay [1] is T1, hRR (hRR1 + hRR2) (Homo sapiens, UniProt P23921).
T1 sequence (P23921 1-792): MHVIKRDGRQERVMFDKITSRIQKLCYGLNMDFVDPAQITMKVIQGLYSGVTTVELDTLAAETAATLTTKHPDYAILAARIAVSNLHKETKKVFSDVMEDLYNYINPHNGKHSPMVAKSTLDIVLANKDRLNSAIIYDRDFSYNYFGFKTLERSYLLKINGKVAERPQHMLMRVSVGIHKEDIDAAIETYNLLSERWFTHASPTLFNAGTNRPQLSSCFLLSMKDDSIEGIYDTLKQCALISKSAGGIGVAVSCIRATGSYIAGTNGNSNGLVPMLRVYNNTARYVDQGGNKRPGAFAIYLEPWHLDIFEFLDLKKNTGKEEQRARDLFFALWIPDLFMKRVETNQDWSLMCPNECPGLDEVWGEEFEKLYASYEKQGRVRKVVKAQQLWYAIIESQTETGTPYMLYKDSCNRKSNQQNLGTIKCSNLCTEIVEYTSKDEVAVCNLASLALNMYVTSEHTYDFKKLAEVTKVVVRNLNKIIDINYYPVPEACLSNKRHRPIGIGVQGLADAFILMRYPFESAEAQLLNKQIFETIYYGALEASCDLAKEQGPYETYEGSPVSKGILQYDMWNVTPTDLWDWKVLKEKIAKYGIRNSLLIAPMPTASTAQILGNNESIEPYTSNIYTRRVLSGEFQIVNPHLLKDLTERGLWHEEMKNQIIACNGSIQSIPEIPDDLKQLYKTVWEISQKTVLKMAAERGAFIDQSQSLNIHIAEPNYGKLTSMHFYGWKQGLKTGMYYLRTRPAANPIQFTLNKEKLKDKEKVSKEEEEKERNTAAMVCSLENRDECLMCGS
T1 sequence (P31350 1-389 partner): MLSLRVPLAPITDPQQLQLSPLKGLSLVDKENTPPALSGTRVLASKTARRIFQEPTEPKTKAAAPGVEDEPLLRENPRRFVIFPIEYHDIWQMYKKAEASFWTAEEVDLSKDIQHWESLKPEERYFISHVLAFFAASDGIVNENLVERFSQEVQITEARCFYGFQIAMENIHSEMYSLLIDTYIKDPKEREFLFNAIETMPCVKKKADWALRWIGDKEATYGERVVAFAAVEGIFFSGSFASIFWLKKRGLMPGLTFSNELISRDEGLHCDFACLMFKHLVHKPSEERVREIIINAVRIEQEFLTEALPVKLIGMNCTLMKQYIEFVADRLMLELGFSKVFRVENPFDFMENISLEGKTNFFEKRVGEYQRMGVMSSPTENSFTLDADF
The class given is biochemical.

In assay [2] the target is T2, ScRR1 (Saccharomyces cerevisiae, UniProt P21524).
T2 sequence (P21524 1-888): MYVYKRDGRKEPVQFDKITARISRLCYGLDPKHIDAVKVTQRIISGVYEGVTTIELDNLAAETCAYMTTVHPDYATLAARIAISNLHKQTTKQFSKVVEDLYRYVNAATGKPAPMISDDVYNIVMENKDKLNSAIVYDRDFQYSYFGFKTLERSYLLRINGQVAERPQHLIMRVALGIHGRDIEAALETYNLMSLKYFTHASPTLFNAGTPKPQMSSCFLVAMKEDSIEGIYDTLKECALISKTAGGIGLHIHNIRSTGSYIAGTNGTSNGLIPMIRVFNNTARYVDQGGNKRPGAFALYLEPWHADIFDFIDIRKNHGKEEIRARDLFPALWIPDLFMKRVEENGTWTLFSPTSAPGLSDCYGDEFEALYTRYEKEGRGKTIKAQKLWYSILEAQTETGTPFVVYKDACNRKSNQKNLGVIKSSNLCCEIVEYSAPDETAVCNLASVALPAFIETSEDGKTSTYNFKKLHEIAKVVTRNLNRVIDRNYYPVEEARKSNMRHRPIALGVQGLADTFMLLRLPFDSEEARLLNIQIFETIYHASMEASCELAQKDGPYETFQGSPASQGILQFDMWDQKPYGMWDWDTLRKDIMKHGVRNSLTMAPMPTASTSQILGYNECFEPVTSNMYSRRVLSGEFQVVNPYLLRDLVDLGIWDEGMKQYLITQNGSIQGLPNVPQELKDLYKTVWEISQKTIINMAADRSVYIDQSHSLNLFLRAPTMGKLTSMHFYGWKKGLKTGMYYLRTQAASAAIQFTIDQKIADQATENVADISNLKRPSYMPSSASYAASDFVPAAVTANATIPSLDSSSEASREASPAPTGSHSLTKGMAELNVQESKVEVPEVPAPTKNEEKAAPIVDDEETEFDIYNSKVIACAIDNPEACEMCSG
Put plainly: X-ray crystal structure, […] Å, crystal soaking. Format: binding. As to conditions: allosteric S-site; Mg2+ bound at alpha- and gamma-phosphates.

One may read the IC50 as the concentration at which inhibition is half-maximal. With `O=[N+]([O-])c1ccc2c(ccn2[C@H]2C[C@H](O)[C@@H](COP(=O)(O)OP(=O)(O)OP(=O)(O)O)O2)c1` [5-NITP], the IC50 in assay [1] was 170 ± 5 µM. Also, the “X-ray crystal structure, 2.3 Å, crystal soaking” value in assay [2] is reported as “clearly shows electron density for 5-NITP bound at the S-site”.
